Experiments:
[1] = biological target: T1, Diacylglycerol lipase-beta (Homo sapiens, UniProt Q8NCG7); experiment: (§1) In Vitro Inhibition of DAGL: Briefly, membrane proteome (1 mg/ml, 20 μL) was prepared from HEK293T cells (transiently transfected with hDAGLα-FLAG or hDAGLα-S472A-FLAG, hDAGLβ-FLAG or hDAGLβ-S443A-FLAG) as described in Example 16. The proteome was incubated at room temperature with vehicle (DMSO) or compound in 0.5 μL DMSO for 30 min. The membrane proteome sample was subsequently treated for 30 min with HT-01 probe (1 μM) or FP-Rh probe (1 μM). The reactions were quenched with 10 μL 3× Laemmli sample buffer (final concentrations: 60 mM Tris-Cl pH 6.8, 2% (w/v) SDS, 10% (v/v) glycerol, 5% (v/v) (3-mercaptoethanol, 0.01% (v/v) bromophenol blue). The samples were directly loaded and resolved on SDS page gel (10% acrylamide). The gels were scanned using a ChemiDoc MP system (Cy3 settings, 605/50 filter).The resolved proteins were transferred from the gels to a polyvinyldifluoride membrane for Western Blotting using a Trans-Blot® Turbo (BioRad). FLAG-tagged enzymes were stained using rabbit anti-FLAG as primary antibody, and goat-anti-rabbit HRP as secondary antibody. The blot was developed in the dark using a 10 mL luminal solution, 100 μL ECL enhancer and 3 μL H2O2. Chemiluminescence was visualized using a ChemiDoc XRS (BioRad).The percentage of DAGL activity remaining in the assayed samples was determined by measuring the integrated optical intensity of the fluorescent protein bands of the Western Blot using image lab 4.1. The relative intensity was compared to the vehicle (DMSO) treated proteins, which were set to 100%. IC50 values were determined by plotting a log(inhibitor) vs. normalized response (Variable slope) dose-response curve generated using Prism software (GraphPad).
T1 sequence (Q8NCG7 whole entry): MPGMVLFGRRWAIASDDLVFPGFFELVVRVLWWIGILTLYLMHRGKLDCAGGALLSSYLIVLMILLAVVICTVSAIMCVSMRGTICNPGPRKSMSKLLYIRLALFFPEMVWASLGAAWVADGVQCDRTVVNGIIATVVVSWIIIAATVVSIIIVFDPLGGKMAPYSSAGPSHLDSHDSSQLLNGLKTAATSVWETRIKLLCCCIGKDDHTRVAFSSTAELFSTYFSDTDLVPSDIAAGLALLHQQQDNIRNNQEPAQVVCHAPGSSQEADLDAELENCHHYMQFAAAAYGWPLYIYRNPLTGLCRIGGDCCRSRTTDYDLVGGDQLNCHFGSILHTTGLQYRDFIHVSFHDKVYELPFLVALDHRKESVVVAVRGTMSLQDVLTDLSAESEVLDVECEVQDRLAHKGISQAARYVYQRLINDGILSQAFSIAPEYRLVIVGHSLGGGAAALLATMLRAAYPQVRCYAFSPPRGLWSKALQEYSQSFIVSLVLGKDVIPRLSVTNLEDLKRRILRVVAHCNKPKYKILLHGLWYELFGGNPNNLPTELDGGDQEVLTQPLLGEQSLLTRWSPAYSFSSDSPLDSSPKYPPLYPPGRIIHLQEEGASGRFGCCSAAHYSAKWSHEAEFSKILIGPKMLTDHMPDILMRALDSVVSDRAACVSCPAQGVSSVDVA

[2] = biological target: T2, Diacylglycerol lipase-alpha (Homo sapiens, UniProt Q9Y4D2); experiment: as §1
T2 sequence (Q9Y4D2 whole entry): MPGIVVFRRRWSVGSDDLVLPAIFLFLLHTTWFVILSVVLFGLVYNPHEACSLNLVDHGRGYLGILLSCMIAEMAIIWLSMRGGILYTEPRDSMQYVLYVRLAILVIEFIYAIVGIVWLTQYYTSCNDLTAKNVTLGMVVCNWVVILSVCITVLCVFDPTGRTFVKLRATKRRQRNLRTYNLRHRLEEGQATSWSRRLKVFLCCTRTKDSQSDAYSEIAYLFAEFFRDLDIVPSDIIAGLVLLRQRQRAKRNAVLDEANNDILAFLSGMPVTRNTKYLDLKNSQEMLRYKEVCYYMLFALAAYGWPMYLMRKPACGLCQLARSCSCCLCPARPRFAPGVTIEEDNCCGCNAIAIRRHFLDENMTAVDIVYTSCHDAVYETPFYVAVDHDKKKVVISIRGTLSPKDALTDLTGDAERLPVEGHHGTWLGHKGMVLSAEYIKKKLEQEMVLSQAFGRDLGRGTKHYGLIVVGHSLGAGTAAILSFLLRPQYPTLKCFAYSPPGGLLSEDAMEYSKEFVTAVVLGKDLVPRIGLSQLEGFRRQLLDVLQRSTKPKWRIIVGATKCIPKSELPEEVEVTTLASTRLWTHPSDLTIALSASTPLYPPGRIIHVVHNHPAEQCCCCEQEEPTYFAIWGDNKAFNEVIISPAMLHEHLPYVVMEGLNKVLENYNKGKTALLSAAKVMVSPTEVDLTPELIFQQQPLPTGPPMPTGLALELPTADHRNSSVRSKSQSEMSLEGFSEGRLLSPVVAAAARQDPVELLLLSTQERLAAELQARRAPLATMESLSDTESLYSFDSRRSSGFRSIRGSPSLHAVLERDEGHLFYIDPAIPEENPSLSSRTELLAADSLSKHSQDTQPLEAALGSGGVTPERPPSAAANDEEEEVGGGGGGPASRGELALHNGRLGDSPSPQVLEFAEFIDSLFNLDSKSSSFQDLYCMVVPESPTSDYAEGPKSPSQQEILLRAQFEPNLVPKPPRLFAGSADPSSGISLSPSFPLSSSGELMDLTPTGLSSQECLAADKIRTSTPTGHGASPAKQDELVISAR

Row | IC50 [1] [nM] | IC50 [2] [nM] | SMILES
1 | < 400 | – | CCC(CC)CN(CCc1ccccc1)C(=O)n1ncc(-c2ccc(OC(F)(F)F)cc2)n1
2 | < 400 | < 400 | CCC(CC)CN(CCc1ccccc1)C(=O)n1cc(-c2ccc(OC(F)(F)F)cc2)nn1

Reference: ChEMBL document CHEMBL5727581, “Triazole DAGLα inhibitors” (2020)
